Experiments:
Assay in all cases: combination Emax (second highest fraction inhibited in the dose matrix, 72 h); higher = more inhibition; extreme values may be limits of the assay
[1] = tested on: 647-V (Bladder Carcinoma)
Procedure, shortened: (§1)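 Cell lines grown in DMEM/F12 or RPMI with 10% FBS were plated in 1536-well plates and held 24 hours at 37°C, 5% CO2 before 72 hours of exposure to two-drug dose matrices, with DMSO typically at 0.2%. CellTiter-Glo 2.0 luminescence gave viability, which was converted to inhibition. Vehicle wells were set to 0 and blank wells to 1. Combination Emax is the second-highest inhibition in the matrix, and Bliss excess is the observed combination effect minus the expected EA + EB − EA·EB, where EA and EB are the single-agent effects.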

[2] = tested on: CAL-39 (Other Solid Carcinomas)
Procedure, shortened: as §1

[3] = tested on: D-283MED (Other Solid Carcinomas)
Procedure, shortened: as §1

[4] = tested on: DOK (Oral Cavity Carcinoma)
Procedure, shortened: as §1

[5] = tested on: EFM-192A (Breast Carcinoma)
Procedure, shortened: as §1

[6] = tested on: ETK-1 (Biliary Tract Carcinoma)
Procedure, shortened: as §1

[7] = tested on: EW-22 (Ewing's Sarcoma)
Procedure, shortened: as §1

[8] = tested on: H4 (Low Grade Glioma)
Procedure, shortened: as §1

[9] = tested on: HCC38 (Breast Carcinoma)
Procedure, shortened: as §1

[10] = tested on: HCT-116 (Colorectal Carcinoma)
Procedure, shortened: as §1

[11] = tested on: HLE (Hepatocellular Carcinoma)
Procedure, shortened: as §1

[12] = tested on: MSTO-211H (Mesothelioma)
Procedure, shortened: as §1

[13] = tested on: NOMO-1 (Acute Myeloid Leukemia)
Procedure, shortened: as §1

[14] = tested on: PA-TU-8902 (Pancreatic Carcinoma)
Procedure, shortened: as §1

[15] = tested on: RCC10RGB (Kidney Carcinoma)
Procedure, shortened: as §1

[16] = tested on: SK-MEL-1 (Melanoma)
Procedure, shortened: as §1

[17] = tested on: SLVL (B-Cell Non-Hodgkin's Lymphoma)
Procedure, shortened: as §1

[18] = tested on: SW948 (Colorectal Carcinoma)
Procedure, shortened: as §1

[19] = tested on: U-118-MG (Low Grade Glioma)
Procedure, shortened: as §1

[20] = tested on: WSU-DLCL2 (B-Cell Non-Hodgkin's Lymphoma)
Procedure, shortened: as §1

SMILES	combination Emax [1]	combination Emax [2]	combination Emax [3]	combination Emax [4]	combination Emax [5]	combination Emax [6]	combination Emax [7]	combination Emax [8]	combination Emax [9]	combination Emax [10]	combination Emax [11]	combination Emax [12]	combination Emax [13]	combination Emax [14]	combination Emax [15]	combination Emax [16]	combination Emax [17]	combination Emax [18]	combination Emax [19]	combination Emax [20]
COc1nnc2ccc(N3CCC(c4ccc(OCCN5CCN(C)C(=O)[C@H]5C)cc4)CC3)nn12 [AZD5153] + CC1(C)CCC(CN2CCN(c3ccc(C(=O)NS(=O)(=O)c4ccc(NCC5CCOCC5)c([N+](=O)[O-])c4)c(Oc4cnc5[nH]ccc5c4)c3)CC2)=C(c2ccc(Cl)cc2)C1 [Venetoclax] (first compound max 1 µM, 7x7, partner max 1 µM)	0.463	0.631	0.835	0.431	0.326	0.445	0.6	0.677	0.458	0.666	0.336	0.271	1	0.275	0.539	0.625	0.802	0.513	0.367	1
COc1nnc2ccc(N3CCC(c4ccc(OCCN5CCN(C)C(=O)[C@H]5C)cc4)CC3)nn12 [AZD5153] + CCN(CCO)CCCOc1ccc2c(Nc3cc(CC(=O)Nc4cccc(F)c4)[nH]n3)ncnc2c1 [AZD2811] (first compound max 1 µM, 7x7, partner max 1 µM)	0.545	0.691	0.9	0.544	0.361	0.463	0.787	0.668	0.426	0.759	0.521	0.26	0.961	0.323	0.565	0.556	0.696	0.65	0.362	0.942
COc1nnc2ccc(N3CCC(c4ccc(OCCN5CCN(C)C(=O)[C@H]5C)cc4)CC3)nn12 [AZD5153] + C[C@@H]1COCCN1C2=NC(=NC(=C2)C3(CC3)[S@](=N)(=O)C)C4=C5C=CNC5=NC=C4 [AZD6738] (first compound max 1 µM, 7x7, partner max 10 µM)	0.789	0.797	0.995	0.569	0.524	0.717	0.927	0.796	0.486	0.88	0.689	0.359	1	0.392	0.572	0.689	0.689	0.675	0.611	1
COc1nnc2ccc(N3CCC(c4ccc(OCCN5CCN(C)C(=O)[C@H]5C)cc4)CC3)nn12 [AZD5153] + Cc1c2c(nn1C)CSCc1cc(n(C)n1)CSc1cc(c3ccccc3c1)OCCCc1c(C(=O)O)n(C)c3c-2c(Cl)ccc13 [AZD5991] (first compound max 1 µM, 7x7, partner max 1 µM)	0.587	0.905	0.979	0.914	0.665	0.513	0.888	0.888	0.479	0.716	0.626	0.293	1	0.345	0.531	0.679	0.715	0.573	0.352	1
COc1nnc2ccc(N3CCC(c4ccc(OCCN5CCN(C)C(=O)[C@H]5C)cc4)CC3)nn12 [AZD5153] + Cn1cnc2c(F)c(Nc3ccc(Br)cc3Cl)c(C(=O)NOCCO)cc21 [Selumetinib] (first compound max 1 µM, 7x7, partner max 10 µM)	0.61	0.827	0.849	0.648	0.304	0.463	0.517	0.699	0.342	0.866	0.341	0.41	1	0.527	0.574	0.983	0.738	0.752	0.362	0.963
Cc1c2c(nn1C)CSCc1cc(n(C)n1)CSc1cc(c3ccccc3c1)OCCCc1c(C(=O)O)n(C)c3c-2c(Cl)ccc13 [AZD5991] + C1CN(CCC1(C(=O)N[C@@H](CCO)C2=CC=C(C=C2)Cl)N)C3=NC=NC4=C3C=CN4 [Capivasertib] (first compound max 1 µM, 7x7, partner max 3 µM)	0.676	0.384	0.367	0.383	0.67	0.254	0.624	0.495	0.506	0.24	0.279	0.245	0.909	0.174	0.298	0.118	0.567	0.569	0.289	1

From the supplement of paper PMC11061612
